Data as given in patent US20230277533A1, “THERAPEUTIC COMBINATIONS COMPRISING UBIQUITIN-SPECIFIC-PROCESSING PROTEASE 1 (USP1) INHIBITORS AND POLY (ADP-RIBOSE) POLYMERASE (PARP) INHIBITORS” (KSQ Therapeutics, Inc., priority 2020, published 2023).

What was measured:
Test in all cases: Colony formation (CFU) assay
Format in all cases: cell-based
ECGI10 = details: ECGI10, esophagus
Procedure, shortened: (§1)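 Under a 14-day clonogenic protocol, media bearing USP1 inhibitor, niraparib or olaparib replaced the old at day 8. Colonies were fixed, stained with crystal violet and the dye quantified at 565 nm; values were fitted to a two-parameter Hill equation.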

NCIH1693 = details: Homo sapiens, NCI-H1693; NCIH1693, lung
Procedure, shortened: as §1

HBCx8 = details: HBCx8, breast
Procedure, shortened: as §1

143B = details: Homo sapiens, bone
Procedure, shortened: as §1

ASPC1 = details: Homo sapiens; ASPC1, pancreas
Procedure, shortened: as §1

HPAFII = details: Homo sapiens, HPAF-II, pancreas
Procedure, shortened: as §1

CAPAN1 = details: Homo sapiens, CAPAN-1; CAPAN1, pancreas
Procedure, shortened: as §1

8305C = details: Homo sapiens, thyroid
Procedure, shortened: as §1

HBCx19 = details: HBCx19, breast
Procedure, shortened: as §1

NCIH1373 = details: Homo sapiens, NCI-H1373; NCIH1373, lung
Procedure, shortened: as §1

RT11284 = details: Homo sapiens, RT112/84; RT11284, bladder
Procedure, shortened: as §1

SAOS2 = details: Homo sapiens, SAOS-2; SAOS2, bone
Procedure, shortened: as §1

SCC25 = details: Homo sapiens, SCC-25; SCC25, head and neck
Procedure, shortened: as §1

NCIH838 = details: Homo sapiens, NCI-H838; NCIH838, lung
Procedure, shortened: as §1

KYSE270 = details: Homo sapiens, KYSE-270; KYSE270, esophagus
Procedure, shortened: as §1

HS578T = details: Homo sapiens, Hs-578T, breast
Procedure, shortened: as §1

UMUC3 = details: Homo sapiens; UMUC3, bladder
Procedure, shortened: as §1

GSU = details: stomach
Procedure, shortened: as §1

HCC1395 = details: Homo sapiens; HCC1395, breast
Procedure, shortened: as §1

HCC95 = details: Homo sapiens; HCC95, lung
Procedure, shortened: as §1

A2058 = details: Homo sapiens; A2058, skin
Procedure, shortened: as §1

BICR56 = details: BICR56, head and neck
Procedure, shortened: as §1

NCIH1838 = details: Homo sapiens, NCI-H1838; NCIH1838, lung
Procedure, shortened: as §1

SNU1041 = details: SNU1041, head and neck
Procedure, shortened: as §1

HCC1500 = details: HCC1500, breast
Procedure, shortened: as §1

KM12 = details: Homo sapiens; KM12, colon
Procedure, shortened: as §1

YD38 = details: YD38, head and neck
Procedure, shortened: as §1

SNUC4 = details: Homo sapiens, SNU-C4; SNUC4, colon
Procedure, shortened: as §1

SNU8 = details: SNU8, ovary
Procedure, shortened: as §1

LUDLU1 = details: LUDLU-1; LUDLU1, lung
Procedure, shortened: as §1

HSC2 = details: Homo sapiens, HSC-2; HSC2, head and neck
Procedure, shortened: as §1

HCC202 = details: HCC202, breast
Procedure, shortened: as §1

KYSE410 = details: Homo sapiens, KYSE-410; KYSE410, esophagus
Procedure, shortened: as §1

QGP1 = details: QGP-1; QGP1, pancreas
Procedure, shortened: as §1

KURAMOCHI = details: ovary
Procedure, shortened: as §1

BICR6 = details: BICR6, head and neck
Procedure, shortened: as §1

LU99 = details: Homo sapiens, Lu-99; LU99, lung
Procedure, shortened: as §1

SMILES	IC50 (ECGI10) [nM]	IC50 (NCIH1693) [nM]	IC50 (HBCx8) [nM]	IC50 (143B) [nM]	IC50 (ASPC1) [nM]	IC50 (HPAFII) [nM]	IC50 (CAPAN1) [nM]	IC50 (8305C) [nM]	IC50 (HBCx19) [nM]	IC50 (NCIH1373) [nM]	IC50 (RT11284) [nM]	IC50 (SAOS2) [nM]	IC50 (SCC25) [nM]	IC50 (NCIH838) [nM]	IC50 (KYSE270) [nM]	IC50 (HS578T) [nM]	IC50 (UMUC3) [nM]	IC50 (GSU) [nM]	IC50 (HCC1395) [nM]	IC50 (HCC95) [nM]	other results
COc1ncnc(C2CC2)c1-c1ncc2cnn(Cc3ccc(-c4nc(C(F)(F)F)cn4C)cc3)c2n1 [Formula II, 6-(4-cyclopropyl-6-methoxypyrimidin-5-yl)-1-(4-(1-methyl-4-(trifluoromethyl)-1H-imidazol-2-yl)benzyl)-1H-pyrazolo[3,4-d]pyrimidine]	> 300	12.7	> 300	> 300	> 300	> 300	> 300	> 300	> 300	> 300	> 300	> 300	> 300	> 300	> 300	> 300	> 300	> 300	> 300	> 300	IC50 (A2058): > 300 nM; IC50 (BICR56): > 300 nM; IC50 (NCIH1838): > 300 nM; IC50 (SNU1041): > 300 nM; IC50 (HCC1500): > 300 nM; IC50 (KM12): 220 nM; IC50 (YD38): > 300 nM; IC50 (SNUC4): > 300 nM; IC50 (SNU8): > 300 nM; IC50 (LUDLU1): > 300 nM; IC50 (HSC2): > 300 nM; IC50 (HCC202): > 300 nM; IC50 (KYSE410): > 300 nM; IC50 (QGP1): > 300 nM; IC50 (KURAMOCHI): > 300 nM; IC50 (BICR6): > 300 nM; IC50 (LU99): 35.4 nM
NC(=O)c1cccc2cn(-c3ccc([C@@H]4CCCNC4)cc3)nc12 [Niraparib, niraparib, reference compound]	> 300	> 300	107	> 300	> 300	> 300	185	> 300	> 300	> 300	> 300	201	> 300	> 300	16.9	> 300	> 300	> 300	8.26	> 300	IC50 (A2058): 58.4 nM; IC50 (BICR56): > 300 nM; IC50 (NCIH1838): > 300 nM; IC50 (SNU1041): > 300 nM; IC50 (HCC1500): 61.1 nM; IC50 (KM12): 106 nM; IC50 (YD38): > 300 nM; IC50 (SNUC4): > 300 nM; IC50 (SNU8): > 300 nM; IC50 (LUDLU1): > 300 nM; IC50 (HSC2): > 300 nM; IC50 (HCC202): 103 nM; IC50 (KYSE410): > 300 nM; IC50 (QGP1): > 300 nM; IC50 (KURAMOCHI): > 300 nM; IC50 (BICR6): 149 nM; IC50 (LU99): 88.6 nM
